From patent publication US20220346650A1, “SYSTEMS AND METHODS FOR VASCULAR AND STRUCTURAL IMAGING” (priority 2019, published 2022)

Tests used:
[1] = system: vascular lesion in the right middle frontal gyrus; settings: general comparison statement in Example 14, no own test described; cited from earlier work
[2] = system: Grade 4 Atypical Teratoid Rhabdoid Tumor (ATRT) in the posterior fossa/brain stem; assay: Intraoperative NIR fluorescence imaging of tozuleristide during pediatric brain tumor resection; format: in vivo, human; settings: Subject T613, 15 mg/m2 IV bolus about 13.5 hours prior to surgery
Experimental: This example describes use of the imaging system and/or method disclosed herein for coaxial illumination and visualization of tozuleristide fluorescence during surgical resection of a pediatric brain tumor. The imaging system of the present invention was used to image brain tissue to detect a cancer using fluorescence imaging. Surgery was performed to remove cancer from the subject.
Subject T613 was diagnosed with a Grade 4 Atypical Teratoid Rhabdoid Tumor (ATRT) in the posterior fossa/brain stem. Tozuleristide which is a peptide-fluorophore detectable agent (15 mg/m2 dose), was given by intravenous (IV) bolus injection about 13.5 hours prior to the start of surgery. The imaging head was attached to the Zeiss Pentero surgical microscope along with two eyepieces prior the start of surgery.
After the tumor was exposed, the imaging system was initialized and used continuously. The imaging system enabled the surgeon to view fluorescence and visible imaging together and simultaneously with the operating microscope. […] Moreover, there was no need to reposition the operating microscope to view the fluorescence and visible images thus providing imaging of the surgical area together with the fluorescence imaging system during the operation, which decreased disruption to the surgical workflow.
Video was captured for the duration of the tumor resection, and still images were captured of the exposed tumor. […] FIGS. 15A-15F show images taken from the tumor resection with the near-infrared (NIR) fluorescence images of the tumor using the imaging system (FIGS. 15B and 15E) and the overlay image with the NIR fluorescence overlaid with the white light or visible light spectrum illumination (FIGS. 15C and 15F). […] In the overlay image, the normal brain tissue appeared red, as it does under normal visible light or white light as shown the visible light images of the tumor (FIGS. 15A and 15D). The surgeon noted that only tumor tissue appeared fluorescent.

[3] = system: vascular lesion in the right middle frontal gyrus; assay: Intraoperative NIR fluorescence imaging of tozuleristide during resection of a vascular lesion (arteriovenous or cavernous malformation); format: in vivo, human; settings: for Fluorescence of surrounding tissue, normal brain tissue and normal vasculature / Fluorescence of the abnormal vascular tissue / vascular lesion: pediatric subject, 22 mg (15 mg/m^2) IV approximately 5-6 hours before surgery, NIR fluorescence; for Fluorescence of the abnormal vascular tissue / vascular lesion: in situ
Experimental: (§1) This example describes use of the imaging system and/or methods disclosed herein for coaxial illumination and visualization of tozuleristide fluorescence during surgical resection of an arteriovenous malformation or cavernous malformation in a pediatric patient. The imaging system of the present invention was used to image brain tissue to detect abnormal vasculature using fluorescence imaging. Surgery was performed to remove the abnormality from the subject.
A pediatric subject with a history of anosmia was found on MRI to have a 3.5 cm T1-hypointense, T2/FLAIR-hyperintense mass in the right middle frontal gyrus with a central enhancing nodule, initially diagnosed pre-operatively to be a low-grade glioma. […] The patient received 22 mg (15 mg/M^2) of tozuleristide via IV injection approximately 5-6 hours before surgery and image collection. The imaging system head was attached to the Zeiss Pentero surgical microscope along with two eyepieces prior the start of surgery.
After the lesion was exposed, the imaging system was initialized and used continuously. The imaging system enabled the surgeon to view fluorescence and visible imaging together and simultaneously with the operating microscope. A microsurgical resection was performed through a right frontal craniotomy. […] The abnormal tissue was completely resected. The patient recovered without deficit. Pathology confirmed the absence of tumor.
Video was captured for the duration of the resection, and still images were captured of the exposed lesion. […] FIGS. 18 and 19 show images taken from the vascular lesion with the near-infrared (NIR) fluorescence images of the vascular lesion using the imaging system. […] In the overlay image, the normal brain tissue and normal blood vessels appeared pink or light tan to red, as it does under normal visible light or white light. The surgeon noted that only the abnormal vascular tissue appeared fluorescent.

[4] = system: cerebral cavernous malformation in the left cerebellar hemisphere; assay: Intraoperative NIR fluorescence imaging of tozuleristide during cavernous malformation resection; format: in vivo, human; settings: pediatric patient; 15 mg/m2 IV on the morning of surgery
Experimental: as §1, with “compounds and” for “imaging system and/or”, “a” for “an arteriovenous malformation or”, “An” for “The”, “system” for “system of the present invention”
The patient received 15 mg/m2 of a fluorescent conjugate comprising SEQ ID NO: 1 conjugated to an ICG (tozuleristide, also referred to herein as Compound 76) via IV injection on the morning of surgery and image collection. The imaging system head was attached to the Zeiss Pentero surgical microscope along with two eyepieces prior the start of surgery.
After the lesion was exposed, the imaging system was initialized and used continuously. The imaging system enabled the surgeon to view fluorescence and visible imaging together and simultaneously with the operating microscope. A microsurgical resection was performed through a left retroaricular craniotomy with frameless stereotactic navigation and intraoperative ultrasonography. A round mulberry appearing vascular lesion that contained areas of thrombosed vessels and firm calcifications was encountered. […] The lesion was removed. […]

For CC1(C)C(/C=C/C=C/C=C/C=C2\N(CCCCS(=O)(=O)O)c3ccc4ccccc4c3C2(C)C)=[N+](CCCCS(=O)(=O)[O-])c2ccc3ccccc3c21 [ICG, indocyanine green], which “Behaviour of ICG alone after injection (comparison statement)” value [1] is on record?
Its value is “transiently lights up blood vessels immediately after injection”.

Which “Surgeon-noted distinction between tumor and normal tissue with NIR fluorescence” value [2] does the source give for tozuleristide here?
Its value is “very good distinction between tumor and normal tissue fluorescence”.

What about the “Background fluorescence in non-tumor or normal brain tissue” value ([2]; NIR fluorescence image) of the same molecule?
Its value is “no discernable background fluorescence”.

What about the “Tozuleristide fluorescence in the exposed tumor” value ([2]; NIR fluorescence, in situ) of the same molecule?
The value was “observed in situ in the exposed tumor”.

And the “Time after injection during which diseased tissue can be highlighted” value ([3]; general statement in Example 14, fluorescence dependent on pathological tissue binding and uptake)?
Its value is “up to 30 hours”.

And the “Fluorescence of surrounding tissue, normal brain tissue and normal vasculature” value (“Fluorescence of surrounding tissue” below) [3]?
The value was “non-fluorescent”.

What about the “Fluorescence of the abnormal vascular tissue / vascular lesion” value [3] of the same molecule?
Its value is “indicative of the presence of tozuleristide in the vascular lesion”.

And the “Fluorescence of the abnormal vascular tissue / vascular lesion” value ([3]; listed as Tozuleristide)?
Its value is “observed in situ in the exposed vascular lesion”.

And the “Fluorescence of the abnormal vascular tissue / vascular lesion” value ([3]; listed as toluzeristide)?
Its value is “fluoresced avidly”.

What about the “Fluorescence of surrounding tissue” value ([3]; listed as Tozuleristide) of the same molecule?
Its value is “no discernable background fluorescence”.

What about the “Fluorescence of surrounding tissue” value ([3]; listed as toluzeristide) of the same molecule?
The value was “no fluorescence”.

And the “Fluorescence of the cavernous malformation lesion” value [4]?
Its value is “fluoresced avidly”.

What about the “Fluorescence of the surrounding cerebellum” value [4] of the same molecule?
The value was “did not fluoresce”.
